This is an account of results in patent US11357817B2, “Immunoproteasome inhibitor” (The Regents of the University of California, priority 2017, dated 2022).

SMILES strings stand for the structures.

One test relates to P. falciparum Dd2. Put plainly: P. falciparum Dd2 asexual blood stage SYBR Green I compound sensitivity assay. In kind it is cell-based, Plasmodium falciparum. To be noted: Plasmodium falciparum, DD2, 72 h, asexual blood stage, 72 hour SYBR green assay. The method, then:
P. falciparum Dd2 strain parasites were cultured under standard conditions (31), using RPMI media supplemented with 0.05 mg/ml gentamycin, 0.014 mg/mL hypoxanthine (prepared fresh), 38.4 mM HEPES, 0.2% Sodium Bicarbonate, 3.4 mM Sodium Hydroxide, 0.05% O+ Human Serum (Denatured at […] for 40 min and From Interstate Blood Bank, Memphis, Tenn.) and 0.0025% Albumax). Human O+ whole blood was obtained from TSRI blood bank (La Jolla, Calif.). Leukocyte-free erythrocytes are stored at 50% hematocrit in RPMI-1640 screening media (as above, but without O+ human serum and with 2× albumax concentration) at 4° C. for one to three weeks before experimental use. Cultures were monitored every one to two days via Giemsa-stained thin smears.
Compound susceptibility was measured using the malaria SYBR Green I-based fluorescence assay (32). Asynchronous P. falciparum parasites (Dd2 strain) were cultured in standard conditions before being plated for the assays. Each compound was tested over 72 hours in technical duplicates on a twelve-point concentration curve prepared by three-fold dilution from 6.7 μM to 0.11 nM. At least three independent experiments were carried out for IC50 determination. Artemisinin and chloroquine were used as controls. IC50 values were obtained using normalized fluorescence intensity from SYBR green I and analyzed via non-linear variable slope four-parameter regression curve-fitting model in Prism 6 (GraphPad Software Inc).

The test system of another test is HepG2 cells. Put plainly: HepG2 cytotoxicity assay. In kind it is cell-based. To be noted: Homo sapiens. The procedure:
The liver-stage and HepG2 toxicity assays were performed as previously reported (35). Briefly, HepG2-A16-CD81EGFP, human hepatocarcinoma HepG2 cells stably transformed to express the tetraspanin CD81 receptor (36, 37) and thus susceptible to P. berghei infection, were cultured at 37° C. in 5% CO2 in DMEM (Life Technologies, Calif.) supplemented with 10% FBS, 0.29 mg/ml glutamine, 100 unit penicillin and 100 μg/ml streptomycin. For both the P. berghei-luciferase and HepG2 cytotoxicity assays, 3×10^3 of the HepG2-A16-CD81EGFP cells in 5 μl of assay medium (DMEM without Phenol Red (Life Technologies, Calif.), 5% FBS, and 5× Pen Strep Glutamine (Life Technologies, Calif.)) at concentration 6×10^5 cells/ml were seeded in 1536-well plates (Greiner BioOne white solid bottom custom GNF mold) 20-26 hours prior to the actual infection. 18 hours prior to infection, 50 nl of compound in DMSO (0.5% final DMSO concentration per well) were transferred with Acoustic Transfer System (ATS) (Biosero) into the assay plates. Atovaquone (12-point serial dilution starting at 10 μM) and Puromycin (12-point serial dilution starting at 10 μM) were used as positive controls for Pb. liver stage assay and HepG2 cytotoxicity respectively. 0.5% DMSO was used as negative control for the both assays.
An. stephensi mosquitoes, infected with P. berghei-luciferase, were provided by the New York University Insectary. P. berghei-luciferase sporozoites were freshly dissected from the infected A. stephensi mosquito salivary glands, filtered twice through a 20 μm nylon net filter using Steriflip Vacuum-Driven Filtration System (Millipore), counted in a hemocytometer, and then adjusted to final concentration 200 sporozoites per μl in the assay media. […] The HepG2-A16-CD81EGFP cell designated for toxicity studies were left uninfected, with 5 ul of additional assay media added to each well to maintain equal concentrations of compounds with P. berghei-luciferase infected plates. After incubation at 37° C. for 48 hours the exoerythrocytic growth and HepG2-A16-CD81EGFP cell viability were quantified by a bioluminescence measurement.
The HepG2 cytotoxicity was assessed by removing the media through an inverted spin of the plates at 150 g for 30 s and addition of 2 μL of CellTiterGlo reagent (Promega diluted 1:2 with deionized water) per well using the MicroFlo liquid handler (BioTek). Immediately after addition of the luminescence reagent, the plates were vortexed for 10 s and read with an EnVision Multilabel reader (PerkinElmer). IC50 values were obtained as above.

Test [1] deals with 20S Plasmodium proteasome (Pf20S) β5 subunit. Put plainly: Proteasome activity assay, Pf20S β5 (suc-LLVY-AMC). In kind it is biochemical, Plasmodium falciparum. The procedure: Asynchronous P. falciparum cultures were grown up to 4-5% parasitemia, in 300 mL of RPMI media at 5.0% hematocrit. Cultures were then transferred to 50 mL conical tubes, pelleted via centrifugation at 800 g for 5 min, and washed once with 1×PBS and pelleted again as above. The PBS was removed and lysis buffer (0.15% saponin in PBS) was added on ice in 10 pellet volumes. Upon lysis of red blood cells, indicated by a clear red supernatant, the lysed cultures were centrifuged at 3200×g for 12 minutes at 4° C. The supernatant was removed by aspiration and the cells were washed twice using chilled PBS in microcentrifuge tubes. The cell pellets were then incubated on ice for 1 hour with occasional vortexing in a buffer consisting of 20 mM Tris-HCl pH 7.5, 5 mM MgCl2, 1 mM DTT, 100 μM E-64 and 1 mM AEBSF. This sample was then subjected to 3 rounds of freezing (−80° C.) and thawing (37° C.) and centrifugation at 6000×g for 10 min. The supernatant containing soluble P. falciparum protein was quantified by the BCA method (Pierce).
P. falciparum proteasome was enriched by two-chromatographic steps reported previously (10). In brief, 10 mg of P. falciparum protein was concentrated to 1 mL using a 100 kDa centrifugal filter unit (Amicon) and loaded onto a 5 mL anion exchange HiTrap DEAE FF column (GE Healthcare). […] The AMC fluorophore release was monitored at Ex 340/Em 465 nm at 24° C. using a Synergy HTX multi-mode reader (Biotek). […] Proteins were eluted using 20 mM Tris-HCl pH 7.5, 100 mM NaCl, 10% glycerol and 1 mL fractions were collected, evaluated for protease activity and pooled.
To estimate the concentration of Pf20S in the final pooled sample, protein was denatured and loaded into a 4-12% Bis-Tris Plus gel (Thermo Fisher Scientific) beside 60 to 100 ng of human constitutive proteasome (Boston Biochem). […] For inhibition assays, inhibitor and substrate were added simultaneously to the enzyme and the rate of AMC release was determined from 60 to 120 minutes and compared to a DMSO control.

Consider `CCCCCC(=O)N[C@@H](C(=O)N[C@@H](CCCC)C(=O)N[C@@H](CC(C)C)C(=O)[C@@]1(C)CO1)C(C)C` [Analog 18, (S)-2-((R)-2-hexanamido-3-methylbutanamido)-N—((S)-4-methyl-1-((R)-2-methyloxiran-2-yl)-1-oxopentan-2-yl)hexanamide], for which the IC50 (in general, the concentration that gives 50% inhibition) came out at 3.27 ± 0.232 nM in the test on P. falciparum Dd2 and 1240 ± 274 nM with HepG2 cells. Besides, in test [1] (450 nM compound, proteasome not named), the “decrease in β5 activity” value was 45%. The “potency towards Pf20S compared with c20S” value in test [1] (β5 activity, 50 nM compound) is reported as “more potent towards Pf20S than c20S”.
